# Values of other authors as cited in US20110008412A1, “Oral Formulations for 5-HT-Receptor Agonists, Uses and Methods of Treatment Employing The Same” (CIPLA LIMITED, priority 2003, published 2011).
smiles,measurement,setting,value
"CNS(=O)(=O)Cc1ccc2[nH]cc(CCN(C)C)c2c1 [sumatriptan, 3-[2-(dimethylamino)ethyl]-N-methyl-1H-indole-5-methanesulfonamide]",half-life,after subcutaneous and oral application,about 2 hours
same,bioavailability,injected subcutaneously,96%
